These results are taken from article PMC6321601 (Molecules, 2018).

The test system of assay [1] is L-O2 human normal liver cells. Put plainly: MTT assay, toxicity against L-O2 normal cells. It counts as cell-based. The note with it: Homo sapiens, 72 h incubation, mean of three independent experiments. As for the experimental part:
(§1) HepG-2 human hepatocellular carcinoma cells and L-O2 human normal liver cells were maintained in DMEM culture medium supplemented with 10% FBS at 37 °C under a humidified atmosphere with 5% CO2.
(§2) HepG-2 and L-O2 cells in logarithmic growth phase were seeded into a 96-well plate at 5 × 10^3/well/200 µL. After 12 h, compounds at different concentrations were added and incubated for 72 h at 37 °C, 5% CO2. Then, 20 µL MTT (5 mg/mL) was added into each well and incubated for 4 h. The supernatant was discarded, and the precipitate was dissolved with DMSO. The absorbance of the optical density (OD) at 570 nm was detected using a microplate reader and the IC50 was calculated with GraphPad Prism 5.
For orientation: Formazan colour is commonly taken as a measure of viable cells.

Assay [2] relates to HepG-2 human hepatocellular carcinoma cells. Put plainly: MTT assay, proliferation of HepG-2 cells. The note with it: Homo sapiens, HepG2, 72 h incubation, mean of three independent experiments. It counts as cell-based. The procedure: as §1, §2

As for `COc1cc(/C=C/C(=O)O[C@@H]2C[C@@]3(C)C4CC=C5C(C[C@H](O)C(=O)C5(C)C)[C@]4(C)C(=O)C[C@]3(C)C2[C@@](C)(O)C(=O)/C=C/C(C)(C)OC(C)=O)cc(OC)c1` (stereo partly drawn) [Compound 3q, (2S,9R,13R,14S,16R)-17-((R,E)-6-Acetoxy-2-hydroxy-6-methyl-3-oxohept-4-en-2-yl)-2-hydroxy-4,4,9,13,14-pentamethyl-3,11-dioxo-2,3,4,7,8,9,10,11,12,13,14,15,16,17-tetradecahydro-1H-cyclopenta[a]phenanthren-16-yl (E)-3-(3,5-dimethoxyphenyl)acrylate], the IC50 (as a rule, the concentration that gives 50% inhibition) in assay [1] worked out at 5250 ± 1630 nM; in assay [2], 3850 ± 630 nM.

`CC(=O)OC(C)(C)/C=C/C(=O)[C@](C)(O)C1[C@H](OC(=O)/C=C/c2ccccc2)C[C@@]2(C)C3CC=C4C(C[C@H](OC(=O)/C=C/c5ccccc5)C(=O)C4(C)C)[C@]3(C)C(=O)C[C@]12C` (stereo partly drawn) [Compound 4, (2S,9R,13R,14S,16R)-17-((R,E)-6-Acetoxy-2-hydroxy-6-methyl-3-oxohept-4-en-2-yl)-4,4,9,13,14-pentamethyl-3,11-dioxo-2,3,4,7,8,9,10,11,12,13,14,15,16,17-tetradecahydro-1H-cyclopenta[a]phenanthrene-2,16-diyl (2E,2′E)-bis(3-phenylacrylate)]: the IC50 in assay [1] and in assay [2] was over 20000 nM throughout.

`CC(=O)OC(C)(C)C=CC(=O)C(C)(O)C1C(OC(=O)CCC(=O)NCCOc2no[n+]([O-])c2S(=O)(=O)c2ccccc2)CC2(C)C3CC=C4C(CC(O)C(=O)C4(C)C)C3(C)C(=O)CC12C` [Compound 9a, 3-((l1-oxidanyl)(oxo)(phenyl)-l5-sulfanyl)-4-(2-(4-(((9R,13R,14S,16R)-17-((R,E)-6-acetoxy-2-hydroxy-6-methyl-3-oxohept-4-en-2-yl)-2-Hydroxy-4,4,9,13,14-pentamethyl-3,11-dioxo-2,3,4,7,8,9,10,11,12,13,14,15,16,17-tetradecahydro-1H-cyclopenta[a]phenanthren-16-yl)oxy)-4-oxobutanamido)ethoxy)-1,2,5-oxadiazole 2-oxide]: the IC50 is 690 ± 430 nM in assay [1] and 460 ± 140 nM in assay [2].

Turning to `CC(=O)OC(C)(C)/C=C/C(=O)[C@](C)(O)C1[C@H](OC(=O)CCC(=O)NCCCOc2no[n+]([O-])c2S(=O)(=O)c2ccccc2)C[C@@]2(C)C3CC=C4C(CC(O)C(=O)C4(C)C)[C@]3(C)C(=O)C[C@]12C` (stereo partly drawn) [Compound 9b, 4-(3-(4-(((9R,13R,14S,16R)-17-((R,E)-6-Acetoxy-2-hydroxy-6-methyl-3-oxohept-4-en-2-yl)-2-hydroxy-4,4,9,13,14-pentamethyl-3,11-dioxo-2,3,4,7,8,9,10,11,12,13,14,15,16,17-tetradecahydro-1H-cyclopenta[a]phenanthren-16-yl)oxy)-4-oxobutanamido)propoxy)-3-(phenylsulfonyl)-1,2,5-oxadiazole 2-oxide], the IC50 in assay [1] turned out to be 800 ± 400 nM; in assay [2], 530 ± 10 nM.

Regarding `CC(=O)OC(C)(C)/C=C/C(=O)[C@](C)(O)C1[C@H](OC(=O)CCC(=O)N2CCN(CCOc3no[n+]([O-])c3S(=O)(=O)c3ccccc3)CC2)C[C@@]2(C)C3CC=C4C(CC(O)C(=O)C4(C)C)[C@]3(C)C(=O)C[C@]12C` (stereo partly drawn) [Compound 9c, 4-(2-(4-(4-(((9R,13R,14S,16R)-17-((R,E)-6-Acetoxy-2-hydroxy-6-methyl-3-oxohept-4-en-2-yl)-2-hydroxy-4,4,9,13,14-pentamethyl-3,11-dioxo-2,3,4,7,8,9,10,11,12,13,14,15,16,17-tetradecahydro-1H-cyclopenta[a]phenanthren-16-yl)oxy)-4-oxobutanoyl)piperazin-1-yl)ethoxy)-3-(phenylsulfonyl)-1,2,5-oxadiazole 2-oxide], the IC50 in assay [1] turned out to be 2610 ± 1770 nM; in assay [2], 920 ± 160 nM.

As to `CC(=O)OC(C)(C)/C=C/C(=O)[C@](C)(O)C1[C@H](OC(=O)CCC(=O)OCCOc2no[n+]([O-])c2S(=O)(=O)c2ccccc2)C[C@@]2(C)C3CC=C4C(CC(O)C(=O)C4(C)C)[C@]3(C)C(=O)C[C@]12C` (stereo partly drawn) [Compound 10a, 4-(2-((4-(((9R,13R,14S,16R)-17-((R,E)-6-Acetoxy-2-hydroxy-6-methyl-3-oxohept-4-en-2-yl)-2-hydroxy-4,4,9,13,14-pentamethyl-3,11-dioxo-2,3,4,7,8,9,10,11,12,13,14,15,16,17-tetradecahydro-1H-cyclopenta[a]phenanthren-16-yl)oxy)-4-oxobutanoyl)oxy)ethoxy)-3-(phenylsulfonyl)-1,2,5-oxadiazole 2-oxide], the IC50 in assay [1] is 2040 ± 670 nM; in assay [2], 820 ± 330 nM.

With `CC(=O)OC(C)(C)/C=C/C(=O)[C@](C)(O)C1[C@H](OC(=O)CCC(=O)OCCCCOc2no[n+]([O-])c2S(=O)(=O)c2ccccc2)C[C@@]2(C)C3CC=C4C(CC(O)C(=O)C4(C)C)[C@]3(C)C(=O)C[C@]12C` (stereo partly drawn) [Compound 10c, 4-(4-((4-(((9R,13R,14S,16R)-17-((R,E)-6-Acetoxy-2-hydroxy-6-methyl-3-oxohept-4-en-2-yl)-2-hydroxy-4,4,9,13,14-pentamethyl-3,11-dioxo-2,3,4,7,8,9,10,11,12,13,14,15,16,17-tetradecahydro-1H-cyclopenta[a]phenanthren-16-yl)oxy)-4-oxobutanoyl)oxy)butoxy)-3-(phenylsulfonyl)-1,2,5-oxadiazole 2-oxide], the IC50 came out at 2100 ± 1410 nM in assay [1] and 520 ± 90 nM in assay [2].

`CC(=O)OC(C)(C)/C=C/C(=O)[C@](C)(O)C1[C@H](OC(=O)CCC(=O)OCCCCCOc2no[n+]([O-])c2S(=O)(=O)c2ccccc2)C[C@@]2(C)C3CC=C4C(CC(O)C(=O)C4(C)C)[C@]3(C)C(=O)C[C@]12C` (stereo partly drawn) [Compound 10d, 4-((5-((4-(((9R,13R,14S,16R)-17-((R,E)-6-Acetoxy-2-hydroxy-6-methyl-3-oxohept-4-en-2-yl)-2-hydroxy-4,4,9,13,14-pentamethyl-3,11-dioxo-2,3,4,7,8,9,10,11,12,13,14,15,16,17-tetradecahydro-1H-cyclopenta[a]phenanthren-16-yl)oxy)-4-oxobutanoyl)oxy)pentyl)oxy)-3-(phenylsulfonyl)-1,2,5-oxadiazole 2-oxide]: the IC50 in assay [1] was 2620 ± 520 nM; in assay [2], 640 ± 260 nM.

`CC(=O)OC(C)(C)/C=C/C(=O)[C@](C)(O)C1[C@H](OC(=O)CCC(=O)OCCCCCCOc2no[n+]([O-])c2S(=O)(=O)c2ccccc2)C[C@@]2(C)C3CC=C4C(CC(O)C(=O)C4(C)C)[C@]3(C)C(=O)C[C@]12C` (stereo partly drawn) [Compound 10e, 4-((6-((4-(((9R,13R,14S,16R)-17-((R,E)-6-Acetoxy-2-hydroxy-6-methyl-3-oxohept-4-en-2-yl)-2-hydroxy-4,4,9,13,14-pentamethyl-3,11-dioxo-2,3,4,7,8,9,10,11,12,13,14,15,16,17-tetradecahydro-1H-cyclopenta[a]phenanthren-16-yl)oxy)-4-oxobutanoyl)oxy)hexyl)oxy)-3-(phenylsulfonyl)-1,2,5-oxadiazole 2-oxide]: the IC50 in assay [1] worked out at 3210 ± 90 nM; in assay [2], 1150 ± 240 nM.

On to `CC(=O)OC(C)(C)/C=C/C(=O)[C@](C)(O)C1[C@H](OC(=O)CCC(=O)OCCCCCCCOc2no[n+]([O-])c2S(=O)(=O)c2ccccc2)C[C@@]2(C)C3CC=C4C(CC(O)C(=O)C4(C)C)[C@]3(C)C(=O)C[C@]12C` (stereo partly drawn) [Compound 10f, 4-((7-((4-(((9R,13R,14S,16R)-17-((R,E)-6-Acetoxy-2-hydroxy-6-methyl-3-oxohept-4-en-2-yl)-2-hydroxy-4,4,9,13,14-pentamethyl-3,11-dioxo-2,3,4,7,8,9,10,11,12,13,14,15,16,17-tetradecahydro-1H-cyclopenta[a]phenanthren-16-yl)oxy)-4-oxobutanoyl)oxy)heptyl)oxy)-3-(phenylsulfonyl)-1,2,5-oxadiazole 2-oxide], for which the figures for the IC50 in assay [1] and in assay [2] were 3250 ± 400 nM and 830 ± 380 nM, respectively.

Take `CC(=O)OC(C)(C)/C=C/C(=O)[C@](C)(O)C1[C@H](OC(=O)CCC(=O)OCCCCCCCCOc2no[n+]([O-])c2S(=O)(=O)c2ccccc2)C[C@@]2(C)C3CC=C4C(CC(O)C(=O)C4(C)C)[C@]3(C)C(=O)C[C@]12C` (stereo partly drawn) [Compound 10g, 4-((8-((4-(((9R,13R,14S,16R)-17-((R,E)-6-Acetoxy-2-hydroxy-6-methyl-3-oxohept-4-en-2-yl)-2-hydroxy-4,4,9,13,14-pentamethyl-3,11-dioxo-2,3,4,7,8,9,10,11,12,13,14,15,16,17-tetradecahydro-1H-cyclopenta[a]phenanthren-16-yl)oxy)-4-oxobutanoyl)oxy)octyl)oxy)-3-(phenylsulfonyl)-1,2,5-oxadiazole 2-oxide]: the IC50 turned out to be 4290 ± 660 nM in assay [1] and 1190 ± 550 nM in assay [2].

With `CC(=O)OC(C)(C)/C=C/C(=O)[C@](C)(O)C1[C@H](OC(=O)CCC(=O)OCCCCCCCCCOc2no[n+]([O-])c2S(=O)(=O)c2ccccc2)C[C@@]2(C)C3CC=C4C(CC(O)C(=O)C4(C)C)[C@]3(C)C(=O)C[C@]12C` (stereo partly drawn) [Compound 10h, 4-((9-((4-(((9R,13R,14S,16R)-17-((R,E)-6-Acetoxy-2-hydroxy-6-methyl-3-oxohept-4-en-2-yl)-2-hydroxy-4,4,9,13,14-pentamethyl-3,11-dioxo-2,3,4,7,8,9,10,11,12,13,14,15,16,17-tetradecahydro-1H-cyclopenta[a]phenanthren-16-yl)oxy)-4-oxobutanoyl)oxy)nonyl)oxy)-3-(phenylsulfonyl)-1,2,5-oxadiazole 2-oxide], the results for the IC50 in assay [1] and in assay [2] were 1170 ± 80 nM and 1150 ± 240 nM, respectively.
